Source: US20200375929A1, “METHODS AND COMPOSITIONS FOR THE TREATMENT OF DISEASES ASSOCIATED WITH CANCER, INFLAMMATION, OR IMMUNE RESPONSE” (Washington University, priority 2017, published 2020)
“Also recorded” adds a separate entry of the source.

How the values were obtained:
[1] = biological target: T1, SDH (Mus musculus, UniProt Q8K2B3); experiment: SDH activity in mouse heart and liver; assay type: in vivo; conditions: daily DI administration i.p.
T1 construct: from tissue; host or cells: mitochondria isolated from mouse heart and liver
T1 sequence (Q8K2B3 43-664): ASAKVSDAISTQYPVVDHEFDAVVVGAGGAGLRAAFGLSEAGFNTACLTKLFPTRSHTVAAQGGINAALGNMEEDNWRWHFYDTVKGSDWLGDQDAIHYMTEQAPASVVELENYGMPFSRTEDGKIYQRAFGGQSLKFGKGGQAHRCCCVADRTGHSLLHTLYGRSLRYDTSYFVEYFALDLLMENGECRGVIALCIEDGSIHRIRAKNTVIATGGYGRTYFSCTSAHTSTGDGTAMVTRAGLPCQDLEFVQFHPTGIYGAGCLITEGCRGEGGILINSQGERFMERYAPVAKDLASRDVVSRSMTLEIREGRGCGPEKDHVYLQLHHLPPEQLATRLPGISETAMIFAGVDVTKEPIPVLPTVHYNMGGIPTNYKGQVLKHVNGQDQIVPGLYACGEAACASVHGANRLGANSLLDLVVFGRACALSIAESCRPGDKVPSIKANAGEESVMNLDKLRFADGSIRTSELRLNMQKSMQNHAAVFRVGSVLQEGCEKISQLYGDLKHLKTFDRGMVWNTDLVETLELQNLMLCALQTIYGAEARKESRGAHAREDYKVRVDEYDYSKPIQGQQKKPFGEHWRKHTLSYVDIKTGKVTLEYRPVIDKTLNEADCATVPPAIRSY
T1 sequence (Q9CQA3 31-282 partner): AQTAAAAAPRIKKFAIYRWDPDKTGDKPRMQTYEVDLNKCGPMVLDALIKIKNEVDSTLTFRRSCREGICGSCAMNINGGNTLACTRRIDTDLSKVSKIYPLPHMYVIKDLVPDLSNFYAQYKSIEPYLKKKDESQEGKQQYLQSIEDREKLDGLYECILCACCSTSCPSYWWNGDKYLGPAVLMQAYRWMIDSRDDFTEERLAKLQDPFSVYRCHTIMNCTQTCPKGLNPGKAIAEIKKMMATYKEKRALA
T1 sequence (Q9CZB0 30-169 partner): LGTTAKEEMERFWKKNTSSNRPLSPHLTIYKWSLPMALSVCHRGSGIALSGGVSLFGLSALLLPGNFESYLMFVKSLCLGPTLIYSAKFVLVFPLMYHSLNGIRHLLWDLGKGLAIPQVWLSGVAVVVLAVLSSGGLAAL
T1 sequence (Q9CXV1 57-159 partner): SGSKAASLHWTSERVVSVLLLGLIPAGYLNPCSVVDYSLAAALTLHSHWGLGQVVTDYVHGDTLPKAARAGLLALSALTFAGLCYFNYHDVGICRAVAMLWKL
Method: DI was administered to mice via the intraperitoneal route at 20 mg/500 μL sterile PBS per mouse either once per day for total length of 4 days (DI daily) or every 2 h, 3 times in total (DI overdose). In daily DI administration, last injection was 6 h before the tissue harvest, in DI overdose protocol last injection was 2 h before harvest. Mice were euthanized and heart (50 mg) and liver tissue (200 mg) were harvested, washed in PBS and processed for mitochondria isolation with Mitochondria Isolation Kit for Tissue (#89801, Thermo Scientific) according to manufacturer's instruction. For analysis of mitochondria purity cytoplasmic and mitochondrial fractions were diluted with reducing sample buffer and analyzed by western blot for SDH and GAPDH presence (see western blot analysis section). SDH activity in isolated mitochondria was analyzed using SDH Activity Colorimetric Kit (#MAK197, Sigma). Isolated mitochondria were directly resuspended in SDH Assay Buffer. In parallel, protein concentration in each sample was determined using RC/DC™ Protein Assay (Biorad) and activity was normalized to protein concentration.

[2] = tested on: BMDMs / BV2 cells; experiment: Intracellular ROS by flow cytometry; assay type: cell-based, mouse; conditions: DI 250 μM
Method: For ROS measurements, cells were treated with DI (250 μM), loaded with 10 μM CM-H2DCFDA (Invitrogen) at RT for 30 min in Hank's balanced salt solution (HBSS). After incubation, cell were rinsed with warm HBSS, harvested and directly analyzed. Mean fluorescent intensity (MFI) of living cells is shown. For Nfkbiz 3′UTR reporter analysis GFP signal was determined in live cells. For analysis of cell viability cells were stained with propidium iodide (1 μg/mL) and percentage of negative cells was plotted. Cells were acquired on CantoII or LSRII flow cytometers (Becton Dickinson), and data were analyzed with FlowJo v.9.5.2 software (Tree Star). For gating strategy see e.g., FIG. 25.

[3] = tested on: IL6, IL12, IL1b, TNFα; experiment: Cytokine production in LPS-stimulated BMDMs (ELISA); assay type: cell-based, mouse
Method: BMDM were prepared from 6- to 12-week-old mice as described 1 and cultured in RMPI-1640 medium supplemented with 10% fetal bovine serum (FBS), 2 mM L-glutamine, and 100 U/mL penicillin-streptomycin and mouse recombinant M-CSF ([…], Peprotech). For experiments, cells were seeded at concentration 10^6 cells/mL in tissue culture plates of various formats. The cells were treated with DI (250 μM (unless stated otherwise), cat #592498, Sigma), DMF (50 μM (unless stated otherwise), cat #242926, Sigma), 3-(ethoxycarbonyl)but-3-enoic acid (3MI, 5 μM, Aris Pharmaceuticals Inc.), 4-ethoxy-2-methylene-4-oxobutanoic acid (MI, Aris Pharmaceuticals Inc.) for 12 h and activated with lipopolysaccharide (LPS; 100 ng/mL; E. coli 0111:B4, Sigma) for 1 h or as indicated. In some experiments cells were stimulated with combination of LPS (20 ng/mL) and IFN-γ (50 ng/mL; Peprotech). In some experiments cells were treated with α-tocopherol (AT, 10 μM; Sigma), MitoTEMPO (MT, 500 μM; Sigma), N-acetylcysteine (NAC, 1 mM, Sigma), ethylester of GSH (EtGSH; 1 mM, Santa Cruz) or buthionene sulfoximine (BSO, 500 μM, Sigma) alone or in combination with DI for 12 h. In some experiments BMDMs were treated with DI for 12 h and bafilomycin A (BafA, 100 nM, Sigma) or MG132 (10 μM, Selleckchem) were added 30 min before subsequent LPS stimulation.
Cytokines in cell supernatants were analyzed using DuoSet® ELISA kits according to manufacturer protocol (R&D Systems). The supernatants from BMDMs were diluted 1:4, from human blood monocytes 1:3.

[4] = tested on: BMDMs; experiment: Nascent protein synthesis (Click chemistry labeling) and proteomic profiling in BMDMs; assay type: cell-based, mouse; conditions: DI, LPS 1 h, metabolic labeling, proteomics
Method: BMDMs were plated 2×10^6 cells per well in 6-well plates. Cells were either (1) treated with DI (250 μM) for 12 h and then stimulated with LPS (100 ng/mL) for 1 h, or (2) only stimulated with LPS (100 ng/mL) for 1 h, or (3) only treated with DI (250 μM) for 12 h, or (4) neither treated with DI nor LPS. Cells were then washed 3× with PBS and lysed in 200 μL of urea buffer (8 M urea, 75 mM NaCl, 50 mM Tris pH 8.0, 1 mM EDTA). Lysates were then cleared by centrifugation at 20,000 g and protein concentrations were determined by BCA assay (Pierce). 15 μg of total protein per sample were processed further. Disulfide bonds were reduced with 5 mM dithiothreitol and cysteines were subsequently alkylated with 10 mM iodoacetamide. Samples were diluted 1:4 with 50 mM Tris/HCl (pH 8.0) and sequencing grade modified trypsin (Promega) was added in an enzyme-to-substrate ratio of 1:50. After 16 h of digestion, samples were acidified with 1% formic acid (final concentration). […]
BMDMs were grown in 12-well plate, […] per well and treated with DI (250 μM) for 10 h. […] Total protein concentration was determined using RC/DC™ Protein Assay (Biorad). […] Proteins were separated on 4%-20% polyacrylamide gradient gels (BioRad) and biotinylated proteins were detected by western blot with streptavidin-HRP conjugate (1:1000, #554066, BD Pharmingen). […]

How did the “SDH activity in heart and liver” value [1] turn out when `C=C(CC(=O)OC)C(=O)OC` [DI, dimethyl itaconate] was run?
Its value is “did not significantly affect SDH activity”.

And the “intracellular ROS production” value [2]?
Its value is “increased intracellular ROS; also recorded: increase in ROS generation”.

What about the “IL-6 production in DI-treated Atf3−/− cells compared to WT” value ([3]; Atf3−/− BMDMs, DI, LPS 24 h) of the same molecule?
The value was “significantly increased IL-6 production”.

What about the LPS-induced cytokine production ([3]; BMDMs pretreated 12 h, then LPS) of the same molecule?
Its LPS-induced cytokine production is “down-regulates production of IL6, IL12, and IL1b, but not TNFα”.

And the “DI-mediated IL-6 inhibition in Nrf2-deficient BMDMs” value ([3]; Nrf2-deficient BMDMs, DI, LPS 4 h)?
The value was “did not alleviate”.

What about the global protein synthesis [4] of the same molecule?
The global protein synthesis was “did not affect protein synthesis globally”.
